Measured values taken from ChEMBL document CHEMBL1134706, “Novel cytotoxic 7-iminomethyl and 7-aminomethyl derivatives of camptothecin” (Bioorg Med Chem Lett, 2001).

Assays:
[1] = Partition coefficient (logP); type: physicochemical; settings: octanol/water
NCI-H460 = experiment: In vitro cytotoxicity against H460 a human non-small lung carcinoma cell line after 1 hour drug exposure; type: functional, cell-based; settings: NCI-H460, 1 h
[2] = In vivo antitumor activity in NSCLC H460 xenografted sc in athymic nude mice expressed as percent Body weight loss (BWL) at a dose of 15 mg/kg orally for q4dx4; type: functional, Mus musculus; settings: route oral
[3] = In vivo antitumor activity in NSCLC H460 xenografted sc in athymic nude mice expressed as percent tumor volume inhibition (TVI) at a dose of 15 mg/kg perorally for q4dx4; type: functional, Mus musculus; settings: route oral
[4] = In vivo antitumor activity in NSCLC H460 xenografted sc in athymic nude mice expressed as percent Body weight loss (BWL) at a dose of 18 mg/kg orally for q4dx4; type: functional, Mus musculus; settings: route oral
[5] = In vivo antitumor activity in NSCLC H460 xenografted sc in athymic nude mice expressed as percent Body weight loss (BWL) at a dose of 6 mg/kg orally for q4dx4; type: functional, Mus musculus; settings: route oral
[6] = In vivo antitumor activity in NSCLC H460 xenografted sc in athymic nude mice expressed as percent Body weight loss (BWL) at a dose of 2 mg/kg orally for q4dx4; type: functional, Mus musculus; settings: route oral
[7] = In vivo antitumor activity in NSCLC H460 xenografted sc in athymic nude mice expressed as percent Tumor volume inhibition (TVI) at a dose of 18 mg/kg perorally for q4dx4; type: functional, Mus musculus; settings: route oral
[8] = In vivo antitumor activity in NSCLC H460 xenografted sc in athymic nude mice expressed as percent Tumor volume inhibition (TVI) at a dose of 6 mg/kg perorally for q4dx4; type: functional, Mus musculus; settings: route oral
[9] = In vivo antitumor activity in NSCLC H460 xenografted sc in athymic nude mice expressed as percent tumor volume inhibition (TVI) at a dose of 2 mg/kg perorally for q4dx4; type: functional, Mus musculus; settings: route oral

| SMILES | logP [1] | IC50 (NCI-H460) | other results |
| --- | --- | --- | --- |
| CC[C@@]1(O)C(=O)OCc2c1cc1n(c2=O)Cc2c-1nc1ccccc1c2CNc1ccccc1 | 2.56 | 310 nM | – |
| CC[C@@]1(O)C(=O)OCc2c1cc1n(c2=O)Cc2c-1nc1ccccc1c2/C=N/C1CCCCC1 | 3.08 | 370 nM | – |
| CC[C@@]1(O)C(=O)OCc2c1cc1n(c2=O)Cc2c-1nc1ccccc1c2/C=N/CCN(C)C | 1.53 | 120 nM | – |
| CC[C@@]1(O)C(=O)OCc2c1cc1n(c2=O)Cc2c-1nc1ccccc1c2CN | 0.37 | 2370 nM | – |
| CC[C@@]1(O)C(=O)OCc2c1cc1n(c2=O)Cc2c-1nc1ccccc1c2CNCCN(C)C | 0.89 | 450 nM | – |
| CC[C@@]1(O)C(=O)OCc2c1cc1n(c2=O)Cc2cc3c(CN(C)C)c(O)ccc3nc2-1 [TOPOTECAN] | – | 1380 nM | BWL [2]: 12%; TVI [3]: 95% |
| CC[C@@]1(O)C(=O)OCc2c1cc1n(c2=O)Cc2c-1nc1ccccc1c2/C=N/c1ccccc1 | 3.19 | 130 nM | BWL [4]: 1%; BWL [5]: 7%; BWL [6]: 2%; TVI [7]: 89%; TVI [8]: 51%; TVI [9]: 33% |
| CC[C@@]1(O)C(=O)OCc2c1cc1n(c2=O)Cc2c-1nc1ccccc1c2CNC1CCCCC1 | 2.44 | 350 nM | – |
| CC[C@@]1(O)C(=O)OCc2c1cc1n(c2=O)Cc2c-1nc1ccccc1c2/C=N/c1ccc([N+](=O)[O-])cc1 | 2.34 | 280 nM | – |
| CC[C@@]1(O)C(=O)OCc2c1cc1n(c2=O)Cc2c-1nc1ccccc1c2/C=N/Cc1ccccc1 | 3.26 | 280 nM | – |
| CC[C@@]1(O)C(=O)OCc2c1cc1n(c2=O)Cc2c-1nc1ccccc1c2/C=N/CCCCO | 1.57 | 360 nM | – |
| CC[C@@]1(O)C(=O)OCc2c1cc1n(c2=O)Cc2c-1nc1ccccc1c2/C=N/N=C(N)N | 0.67 | 39300 nM | – |
| CC[C@@]1(O)C(=O)OCc2c1cc1n(c2=O)Cc2c-1nc1ccccc1c2CN=C(N)N | -0.79 | 12600 nM | – |
